Results published in patent US4110460A, “2,3-Dihydro-imidazo[2,1-b]-thiazole derivatives and applications thereof” (Metabio, priority 1976, dated 1978).

Tests used:
[1] = test system: ultra-violet induced erythema in guinea-pigs; test: ultra-violet induced erythema in guinea-pigs; type: in vivo, guinea-pig; settings: intragastric
Method: Erythema is induced in depilated guinea-pigs placed at a distance of 25 cm from a 300 watt mercury vapor lamp.
The back of the guinea-pigs is covered with a coat of flexible rubber in which 3 circular perforations 8 mm in diameter are effected. Blind evaluation of the erythema is carried out, 2 hrs and 5 hrs after irradiation.
The treatment is administered by the intragastric route, under a volume of 5 ml/kg.

rats = test: chronic toxicity tests in rats; type: in vivo, rat; settings: 40 mg/kg/day
[2] = test system: cotton-induced granuloma in rat; test: cotton-induced granuloma in rat; type: in vivo; settings: male rats, oral during 7 days
Method: The test is conducted according to the technique of […]. Am. Chem. Soc., 80, 3161, 1958) The male rats are distributed in randomized groups, slightly anesthetized and depilated in the dorsal area. An incision of about 1 cm is effected along the spine, and 2 pellets of carded cotton weighing each 20 mg are placed under the skin on both sides of the neck. The treatments are administered orally during 7 days, as suspensions in BT medium. The reference group is administered BT medium alone, under the same experimental conditions. 24 hours after the last ingestion, the pellets are excised and weighed.

[3] = test system: writhing induced by intraperitoneal acetic acid in mice; test: acetic acid writhing test in mice (analgesic activity); type: in vivo, mouse; design: key to Analgesic activity (writhing test): rated, according to its intensity, with from 1 + to 4 +'s, with from 1 + to 4 +'s; ++++: rated, according to its intensity, with from 1 + to 4 +'s; settings: for Analgesic activity (writhing test): oral, mice, 0.5 hour prior to i.p. acetic acid, 15 minutes recording, rated + to ++++
Method: The analgesic activity was determined according to the conventional testing methods for said activity: the writhing test. Mice are given a single intraperitoneal injection of 0.2 ml 6°/129 acetic acid.
The test compound is administered orally 0.5 hour prior to the acetic acid injection. The number of characteristic writhing movements inducted by pain is recorded during the 15 minutes which follow the acetic acid injection.
The analgesic action of the various derivatives is rated, according to its intensity, with from 1 + to 4 +'s in the following table.

[4] = test system: hyperthermia induced in rats by subcutaneous injection of barm; test: antipyretic activity, barm (yeast)-induced hyperthermia in rats; type: in vivo, rat; settings: po, intragastric, 17 hours after yeast injection, lowest active dosage, read-out: active from a dosage of (antipyretic activity)
Method: Hyperthermia is induced in rats by subcutaneous injection of barm, at a dosage of 4 g/kg.
The treatments are administered by the intragastric route, 17 hours after yeast injection.
The change in rectal temperature of the rats is compared, as a function of time, in the absolute reference animals, the "barm" reference animals and the treated animals.

male mice = test: acute oral toxicity in male mice; type: in vivo
Method: (§1) Acute toxicity was determined orally in male mice.

[5] = test system: carrageenin-induced edema of the rear limb of rats; test: carrageenin-induced edema of the rear limb of rats (anti-inflammatory activity); type: in vivo, rat; design: Anti-inflammatory activity (carrageenin-induced edema): key to the marks not given beside the values; settings: for Anti-inflammatory activity (carrageenin-induced edema): oral, rats, after 1.5 hour, rated + to ++++; for ED30 / ED40: carrageenin-induced edema in rat; for ED30: read-out: AD30; for ED40: read-out: AD40
Excerpt: The anti-inflammatory action of the various compounds is rated, according to its intensity, with 1 + to 4 +'s in the following Table.
1. Carrageenin-induced edema in rat

fasting rats = test: ulcerogenic activity in fasting rats; type: in vivo, rat
[6] = test system: Freund-adjuvant induced arthritis in rats; test: Freund-adjuvant induced arthritis in rats; type: in vivo; settings: Rattus norvegicus, limb volume, X-ray examination, weight curve, lowest active dosage, read-out: inhibiting activity on the development of adjuvant-induced polyarthritis, apparent from a dosage of
Method: Injection of Mycobacterium butyricum is carried out at the level of the hind limb of rats, and produces as early as the 10th day an arthritis which develops rapidly.
The inhibiting activity of the compound of Example 1 on the development of adjuvant-induced polyarthritis in rats is apparent from a dosage of 5 mg/kg.

[7] = acute oral toxicity in male mice; type: in vivo; settings: mouse, in vivo, po, male mice; read-out: LD50 per os
Method: as §1

| SMILES | Analgesic activity (writhing test) [3] | Anti-inflammatory activity (carrageenin-induced edema) [5] | ED30 ([5]; po, 1.5 h) | ED40 ([5]; po, 1.5 h) | LD50 [7] | further results |
| --- | --- | --- | --- | --- | --- | --- |
| COc1ccc(-c2nc3n(c2-c2ccc(OC)cc2)CCS3)cc1 [Example 1, 2,3-dihydro-5,6-(bis-paramethoxyphenyl)-imidazo[2,1-b]-thiazole] | ++++ | ++++ | 5.22 mg/kg | 7.78 mg/kg |  | protective activity, dependence on dosage (erythema) [1]: proportional to the dosage administered; protective activity still maintained ... hours after administration ([1]; duration): ≥ 6 h; protective activity highly marked as early as the first ... hours ([1]; onset): ≤ 3 h; major side-effects (chronic toxicity) (rats): failed to provide evidence of any major side-effects; activity relative to phenylbutazone (granuloma) [2]: twice as active as phenylbutazone; inhibition of the development of a granuloma [2]: inhibits the development of a granuloma; analgesic activity on visceral pain ([3]; acetic acid writhing test in mice, in words): highly marked analgesic activity on visceral pain; minimal effective dose [4]: 3.38 mg/kg; LD50 per os (male mice; mouse, in vivo, po): > 4,200 mg/kg; minimal effective dose ([5]; po, 1.5 h, rat, lowest active dosage, read-out: active from a dosage of (carrageenin-induced edema)): 3.38 mg/kg; ulcerogenic activity (fasting rats): low ulcerogenic activity found in fasting rats is equivalent to that of the reference materials; minimal effective dose [6]: 5 mg/kg |
| COc1ccc(-c2nc3n(c2-c2ccc(OC)cc2)CC(C)S3)cc1 (centres unmarked) [Example 3, 2-methyl-2,3-dihydro-5,6-(bis-paramethoxyphenyl)-imidazo[2,1-b]-thiazole] | +++ | +++ |  |  | > 2000 mg/kg |  |
| COc1ccc(-c2nc3n(c2-c2ccc(OC)cc2)C(C)CS3)cc1 (centres unmarked) [Example 4, 3-methyl-2,3-dihydro-5,6-(bis-paramethoxyphenyl)-imidazo[2,1-b]-thiazole] | +++ |  |  |  | > 2000 mg/kg |  |
| COc1ccc(-c2nc3n(c2-c2ccc(OC)cc2)C(C)C(C)S3)cc1 (centres unmarked) [Example 7, 2,3-dimethyl-2,3-dihydro-5,6-bis(p-methoxyphenyl)-imidazo[2,1-b]-thiazole] | ++++ | +++ |  |  |  |  |
| COc1ccc(-c2nc3n(c2-c2ccc(OC)cc2)CCS3)cc1 [Example 22] |  |  |  |  |  | LD50 per os (male mice; oral, male mice): > 2,000 mg/kg |
| CCCCC1C(=O)N(c2ccccc2)N(c2ccccc2)C1=O [Phenylbutazone, reference compound] |  |  | 16.1 mg/kg | 27.4 mg/kg |  |  |
